Measurements taken from US8852619B2, “Compositions of dibromomalonamide and their use as biocides” (Dow Global Technologies LLC, priority 2009, dated 2014).
Where two headings read alike, the source gives them in different places.

Key:
[1] = cited from earlier work
[2] = test system: consortium of bacteria: mixture of Pseudomonas aeruginosa, Klebsiella pneumoniae, Staphylococcus aureus, and Bacillus subtilis; assay: Growth inhibition assay (microtiter plate-based synergy assay); assay type: cell-based; conditions: used alone, 24 hr
Procedure: (§1) The assay of this Example measures the efficacy of the biocides at preventing growth of a consortium of bacteria in a dilute mineral salts medium. The medium contains (in mg/l) the following components: FeCl3.6H2O (1); CaCl2.2H2O (10); MgSO4.7H2O (22.5); (NH4)2SO4 (40); KH2PO4 (10); K2HPO4 (25.5); Yeast Extract (10); and glucose (100). After all components are added to deionized water, the pH of the medium is adjusted to 7.5. Following filter sterilization, aliquots are dispensed in […] quantities to sterile microtiter plate wells. Dilutions of 2,2-dibromomalonamide (“DBMAL”) and/or “Biocide B” are then added to the microtiter plate. After preparing the combinations of actives as illustrated below, each well is inoculated with 100 μl of a cell suspension containing ca. 1×10^6 cells per milliliter of a mixture of Pseudomonas aeruginosa, Klebsiella pneumoniae, Staphylococcus aureus, and Bacillus subtilis. The final total volume of medium in each well is 300 μl. Once prepared as described herein, the concentration of each active ranges from 25 ppm to 0.195 ppm as illustrated in Table 1. The resulting matrix allows testing of eight concentrations of each active and 64 combinations of actives at varying ratios.
(§2) Controls (not shown) contain the medium with no biocide added. Immediately after the microtiter plates are prepared, the optical density (OD) readings for each well are measured at 600 nm and the plates are then incubated at 37° C. for 24 hr. After the incubation period, the plates are gently agitated before OD values are collected. The OD values at t(0) are subtracted from t(24) values to determine the total amount of growth (or lack thereof) that occurs. These values are used to calculate the percent inhibition of growth caused by the presence of each biocide and each of the 64 combinations.
(§3) where • MDBMAL: Concentration of DBMAL required to inhibit ˜90% of bacterial growth when used in combination with DBNPA. • CDBMAL: Concentration of DBMAL required to inhibit ˜90% of bacterial growth when used alone. • MDBNPA: Concentration of DBNPA required to inhibit ˜90% of bacterial growth when used in combination with DBMAL. • CDBNPA: Concentration of DBNPA required to inhibit ˜90% of bacterial growth when used alone. The SI values are interpreted as follows: • SI<1: Synergistic combination • SI=1: Additive combination • SI>1: Antagonistic combination
(§4) In the Example, the amounts of biocides in the solution are measured in mg per liter of solution (mg/l). Since solution densities are approximately 1.00, the mg/l measurement corresponds to weight ppm. Both units may therefore be used interchangeably in the Examples.

[3] = as above; assay type: cell-based; conditions: 24 hr, read-out: Percent inhibition of growth; for inhibition at 0.2 ppm: 0.20 ppm; for inhibition at 12.5 ppm: 12.50 ppm
Procedure: as §1, §2, §3, §4

Structure (SMILES)	factor of increase of rate of disappearance ([1]; going from pH 6 to pH 8.9)	half life (hydrolytic degradation) ([1]; pH 8) [h]	half life (hydrolytic degradation) ([1]; pH 11.3) [h]	Minimum concentration that caused ~90% inhibition of growth (CDBNPA) [2] [mg/L]	inhibition at 0.2 ppm ([3]; DBNPA alone) [%]	inhibition at 0.39 ppm ([3]; DBNPA alone, 0.39 ppm) [%]	inhibition at 0.78 ppm ([3]; DBNPA alone, 0.78 ppm) [%]	inhibition at 1.56 ppm ([3]; DBNPA alone) [%]	inhibition at 3.13 ppm ([3]; DBNPA alone, 3.13 ppm) [%]	inhibition at 6.25 ppm ([3]; DBNPA alone) [%]	inhibition at 12.5 ppm ([3]; DBNPA alone) [%]	inhibition at 25 ppm ([3]; DBNPA alone) [%]	inhibition at 0.2 ppm ([3]; DBMAL alone) [%]	inhibition at 1.56 ppm ([3]; DBMAL alone) [%]	inhibition at 6.25 ppm ([3]; DBMAL alone) [%]	inhibition at 12.5 ppm ([3]; DBMAL alone) [%]	inhibition at 25 ppm ([3]; DBMAL alone) [%]
N#CC(Br)(Br)C(N)=O [DBNPA, 2,2-dibromo-3-nitrilopropionamide]	about 450	2	0.00694	3.13	0	0	0	75	98	82	88	96	–	–	–	–	–
NC(=O)C(Br)(Br)C(N)=O [DBMAL, 2,2-dibromomalonamide]	–	–	–	–	–	–	–	–	–	–	–	–	0	11	38	92	96
